In a melting point compilation (Tetko et al.; mined from patent text by program, amines drawn as free bases though some values may be those of a salt):

Compound | melting point
CC(=O)COc1ccc(/C=C/C(=O)O)c(Oc2ncc(C(F)(F)F)cc2Cl)c1 | 179 to 180 °C
CC(=O)SCC(C(=O)N1CCC(=C2c3ccc(Cl)cc3CCc3cccnc32)CC1)c1ccccc1 (centres undefined) | 92.7 to 93 °C
Cc1oc(-c2ccccc2)nc1COc1ccc(Cn2cc(CCC(=O)O)c(-c3ccccc3)n2)nc1 | 175 to 176 °C
COc1ccc2[nH]cc(C3=CCC(N4CCN(c5cccc(Cl)n5)CC4)CC3)c2c1 (centres undefined) | 210 to 213 °C
CCCCCCCCCCCCCCOc1ccc(CC(=O)CO)cc1 | 84 to 85 °C
CC(C)CC(CP(=O)(O)CNCCc1ccccc1)C(=O)N(c1ccc(-c2ccccc2)cc1)[C@@H](C)C(=O)O (some centres undefined) | 229 to 230 °C
CCn1ncc2c3ncn(CCC(C)C)c(=O)c3cnc21 | 165 to 167 °C
O=C(N[C@H]1CN2CCC1CC2)C(O)(c1ccccc1)C1CCCC1 (some centres undefined) | 69.8 to 73.3 °C
CC(=O)c1ccc(-c2ccc(N(Cc3ccccc3)Cc3ccccc3)cc2)c(C)c1 | 145 to 146 °C
CSc1cccc2c1Oc1ccccc1N2[Si](C)(C)C(C)(C)C | 61 to 62 °C
CN1CC(=O)Nc2ccc(Cl)c(F)c2C1=O | > 250 °C
CCOC(=O)c1cc(Nc2cccc(Cl)c2Cl)c(C(=O)OCC)cc1Nc1cccc(Cl)c1Cl | 265 to 266 °C
C[C@@H]1CCCN1CCCN1CCN(CCN2CCCCC2)C1=C(C#N)C#N | 70 to 71 °C
CN(C)c1ccc2[nH]c3c([N+](=O)[O-])ccc(Cl)c3c(=O)c2c1 | > 300 °C
COC(=O)c1cccc(/C=C/C(=O)Nc2ccccc2NC(=O)OC(C)(C)C)c1 | 79 to 82.4 °C
CCCCOC(=O)n1c(N)nc(C#N)c1C#N | 170 to 172 °C
COC(=O)c1ccc(Cc2c(OCc3ccc(-c4ccccc4-c4nnn[nH]4)cc3)cc(C)nc2C)cc1 | 144 to 145 °C
COC(=O)c1cc(-c2cccc(Cl)c2Cl)c(C(=O)OC)[nH]1 | 143 to 145 °C
Cc1ccc(-c2nn3cccnc3c2CC(=O)O)cc1 | 170 to 171 °C
Clc1nc2nc(Cl)sc2s1 | 180 °C
O=C(O)c1ccc2oc(-c3ccc(O)cc3)cc2c1 | > 300 °C

Compound | melting point
CC(C)(C(=O)OCC(=O)c1ccccc1)n1c(=O)[nH]c2cccc(F)c2c1=O | 179 to 180 °C
CCCCCCCCCCCCCCS(=O)(=O)NC(=O)Nc1c(C(C)C)cccc1C(C)C | 135 to 137 °C
CCOC(=O)C(NC(=O)CNC(N)=O)C(=O)OCC | 140 to 142 °C
O=S(=O)(c1ccccc1)c1ccc2c(c1)[C@@H](O)[C@H](Br)CCO2 (relative stereo) | 190 to 193 °C
CC1(C)OC(=O)Nc2ccc(-c3ccc(C#N)s3)cc21 | 264 to 266 °C
CN(C)S(=O)(=O)c1ccc2c(c1)CC(N1CCN(CCN3CCOC3=O)CC1)c1ccccc1S2 (centres undefined) | 164 to 165 °C
CCCOc1ccc(-c2ccc3c(c2)C=C(C(=O)Nc2ccc(C(O)c4ccccn4)cc2)CCS3(=O)=O)cc1 (centres undefined) | 208 to 210 °C
Cn1c(-c2ccc(O)cc2)cc2ccc(O)cc21 | 200 to 204 °C
C=C(C)C(=O)c1ccc2c(c1)oc(=O)n2C | 127 °C
CCOC(=O)c1cc(-c2csc(-c3ccnc(NCC4CC4)c3)n2)c(=O)[nH]c1C | > 260 °C
CCOc1cc(C(CC#N)N2Cc3c(Cl)ccc(NC(=O)C4CC4)c3C2=O)ccc1OC (centres undefined) | 200 to 202 °C
CCOC(=O)CNC(=O)c1ccc(-c2ccc([N+](=O)[O-])cc2)cc1 | 145 to 148 °C
COc1ccccc1OC1CCN(C(=O)Cl)C1 (centres undefined) | 80 to 81 °C
COc1ccc(-c2nc(COc3cccc(N)c3)c(C)o2)cc1 | 132 to 134 °C
CC(C)n1cc(C(=O)C(F)(F)F)c2ccc([N+](=O)[O-])cc21 | 143 to 145 °C
CCCCC(CC)COc1cc(-c2ccccn2)nc(-c2ccccn2)c1 (centres undefined) | 58.5 °C
C=Cc1cc(O[Si](C)(C)C(C)(C)C)cc2nc(-c3ccc(O[Si](C)(C)C(C)(C)C)c(F)c3)oc12 | 93 to 95 °C
CN1C2CCC1CC(NC(=O)c1cc(Cl)cc3oc(-c4ccccc4)nc13)C2 (centres undefined) | 187 to 190 °C
CC(C)(C)OC(=O)Nc1cc(N2CCC3(CC2)OCCO3)c(C#Cc2ccccc2)cc1[N+](=O)[O-] | 179 to 180 °C
CC(C)c1cc(-c2ccc3c(c2)OCO3)nc(Cl)c1C#N | 171 to 173 °C
C=C(c1ccc(C)cc1)c1ccc(N2CCCC2)cc1 | 134 to 136 °C

Compound | melting point
CC1OC(C)(C)c2cc(-c3ccc(C#N)n3C)ccc2N1C(=O)OCC1c2ccccc2-c2ccccc21 (centres undefined) | 63 to 64 °C
COc1nc(-n2cc(C(=O)O)c(=O)c3cc(F)c(F)c(Cl)c32)c(F)cc1F | 205 to 210 °C
COc1cc(-c2csc3c2OCCO3)c(OC)c2c(OC)cc(-c3csc4c3OCCO4)c(OC)c12 | 300 to 303 °C
Cc1cc2c(-c3ccc(Br)cc3)c(CC(=O)Nc3ccc(F)cc3C(F)(F)F)c(=O)oc2cc1Cl | 262 to 264 °C
CN1CC=C(C2=Cc3ccccc3Oc3ccc(Br)cc32)CC1 | 144 to 146 °C
Cc1nc(NC(=O)c2cccc(Cl)c2)sc1C(=O)NCc1ccccc1 | 178 to 179 °C
COC(=O)c1ccc(N2CCOCC2)cc1 | 152 to 154 °C
CS(=O)(=O)c1ccc(-c2ccc(Cl)n2-c2ccc(F)cc2)cc1 | 180 to 182 °C
O=c1[nH]c(=O)n(Cc2cccc(OCc3noc(-c4ccccc4)n3)c2)o1 | 133 to 134 °C
Cc1nc2c(N)nc3cc(OCCNC(=O)OC(C)(C)C)ccc3c2n1CC(C)C | 227 to 228 °C
CC(C)(C)C(=O)NCc1cc(-c2ccc(Cl)c(Cl)c2)n(Cc2ccc(Cl)c(Cl)c2)n1 | 56.5 °C
CCOC(=O)CCCCOc1ccc(C(=N)NC(=O)OCc2ccccc2)cc1 | 88 to 90 °C
OC(CS)(Cn1cncn1)c1ccc(Cl)cc1Cl (centres undefined) | 139 to 142 °C
O=C(O)c1ccc(CCCOCCCCCCBr)s1 | 93 to 95 °C
Cc1c(-c2ccncc2)sc(-c2ccncc2)c1C(F)F | 132 to 133 °C
CCc1cccc(C)c1CNc1cc(C(N)=O)cc2c1nc(C)n2C | 240 to 241 °C
CCOC(=O)C(C)=C(CC)NC(=O)Nc1cc(OC(C)C)c(Cl)cc1F | 104 to 106 °C
O=C(O)/C=C/c1ccc(C(=O)NC2CCCCC2)cc1 | 214 °C
CCCCC[C@@H](CNC(=O)Nc1c(OCC)ccc2c1CCC2)c1cccc2c1OCO2 | 108 to 109 °C
COc1cc2c(cc1OC)N(C)C(=O)CN=C2c1cccnc1 | 177 to 179 °C
COc1ccc(C(=O)Nc2ccccc2)cc1NC(=S)Nc1cccc(C(=O)O)c1 | 196 to 197 °C

Further lines, results first:

melting point | Compound
235 to 236 °C | CCOC(=O)C(=O)Nc1cc(NC(=O)NC)ccc1O
38.5 to 39.5 °C | CCCCS(=O)(=O)c1ncn(C(=O)N(CCC)CCC)n1
156 to 158 °C | OCc1c(OCc2ccccc2)ccc2c1CC[C@@H](NC1CCC1)[C@@H]2O (relative stereo)
155 to 156 °C | CN(C)C=Nc1c(Cl)cc(N=Cc2ccc3c(c2)OCO3)cc1Cl
67 to 70 °C | COc1ccc(CNC(=S)SC)cc1
130 to 131 °C | CCc1cccc(CC)c1NS(=O)(=O)c1ccc(C)cc1
97 to 100 °C | CCOC(=O)Nc1ccc(OC)cc1C(C)=O
272 to 275 °C | CCCc1nn(C)c2c(=O)[nH]c(Cc3ccc(NC(C)=O)cc3)nc12
110 to 111 °C | COC(=O)C(Br)Cc1ccc(OC)c(C(=O)NCc2ccc(C(F)(F)F)cc2)c1 (centres undefined)
83 to 105 °C | CC(CC1OCCc2ccccc21)NCC(O)c1ccc(O)cc1 (centres undefined)
112 °C | COC(=O)C(=O)c1cc[nH]c1
244 to 246 °C | COC(=O)c1sc2c(c1N)c1ccccc1c(=O)n2-c1ccccc1Cl
294 to 296 °C | O=C(O)COc1ccc(C(=O)CN2CCN(c3ccncc3)CC2)cc1
256 °C | O=C(O)c1c2n(c3cc(N4CCN(CCO)CC4)c(F)cc3c1=O)CCS2
200 to 202 °C | COC(=O)c1nc(-c2ccc(Cl)c(OC)c2F)nc(N)c1F
115 to 117 °C | CCCC(C)(C)NC(=S)Nc1cc(Cl)cc(Cl)c1
100 to 102 °C | COc1cnc(CSc2nc3cc(OC(F)F)ccc3[nH]2)c(C)c1OC
134 to 136 °C | CCOCc1nc2c(N)nc3cc(OCCCN4CCCC4=O)ccc3c2n1CCCCNC(=O)OC(C)(C)C

melting point | Compound
57 to 59 °C | N#Cc1ccc(S(F)(F)(F)(F)F)cc1[N+](=O)[O-]
148 to 149 °C | CC1OP(=O)(O)c2ccccc21 (centres undefined)
256 to 258 °C | CN(C)C1CCC(c2cc3ccccc3c(=O)[nH]2)CC1 (centres undefined)
160 °C | CCCCc1nc(SC)c(C(=O)O)n1Cc1ccc(-c2nc3ccccn3c2-c2nnn[nH]2)cc1
186 to 188 °C | O=C1N(c2ccccc2)c2ccccc2C1(Cc1ccncc1)Cc1ccncc1
68 °C | CCN(CC)c1nc(N)c(SC)c(Cl)n1
171 to 172 °C | N#Cc1ccc2oc(CCc3ccc(C(=O)On4nnc5ccccc54)cc3)cc2c1
196 to 197 °C | COCCNC(=NC#N)Nc1ccc(C2=NNC(=O)CC2C)cc1 (centres undefined)
60 to 64 °C | CN(C)C12CC3CC(CC(O)(C3)C1)C2
147 to 149 °C | Cc1nnc2ccc(-c3ccccc3F)nn12
131 to 132 °C | CCOc1nc(C(F)(F)F)cc(=O)n1-c1cc(OCCON=C(C)C)c(Br)cc1F
220 to 222 °C | FC(F)(F)Oc1ccc(Nc2cc(-c3ccccc3)nc(-c3ccccc3)n2)cc1
90 to 92 °C | COC(=O)c1ccc(CN2N=C(c3ccc(OC)c(OC)c3)[C@@H]3CCCC[C@@H]3C2=O)cc1 (relative stereo)
163 to 165 °C | c1ccc2c(C3CCC4(CC3)OCCO4)c[nH]c2c1
149 to 150 °C | Cc1ccc(C)c2c1OCc1ccccc1C2C(=O)Nc1c(C(C)C)cccc1C(C)C (centres undefined)
220 to 223 °C | CNS(=O)(=O)c1cn(C)c2cc(Cl)ccc2c1=O
110 to 112 °C | COc1ccc(C(c2ccc(OC)cc2)c2cnccc2C(=O)NC23CC4CC(CC2C4)C3)cc1
98 to 99 °C | CCOC(=O)C=C1NC(C)=C(C(=O)OCC)C(c2ccccc2C(F)(F)F)C1C(=O)OCC (centres undefined)
